Tests used:
cathepsin L [1] = biological target: T1, cathepsin L (Homo sapiens, UniProt P07711); assay type: biochemical; set-up: human cathepsin L purified from human liver (Sigma Aldrich); purchased Sigma Aldrich; host or cells: human liver (tissue-purified)
cathepsin L [2] = biological target: T1, cathepsin L; assay type: biochemical; set-up: human cathepsin L purified from human liver (Sigma Aldrich); purchased Sigma Aldrich; host or cells: human liver (tissue-purified); remark: listed apart in the source
cathepsin L [3] = biological target: T1, cathepsin L; assay type: biochemical; set-up: human cathepsin L purified from human liver (Sigma Aldrich); purchased Sigma Aldrich; host or cells: human liver (tissue-purified); remark: listed apart in the source
cathepsin L [4] = biological target: T1, cathepsin L; assay type: biochemical; set-up: human cathepsin L purified from human liver (Sigma Aldrich); purchased Sigma Aldrich; host or cells: human liver (tissue-purified); remark: listed apart in the source
cathepsin L [5] = biological target: T1, cathepsin L; assay type: biochemical; set-up: human cathepsin L purified from human liver (Sigma Aldrich); purchased Sigma Aldrich; host or cells: human liver (tissue-purified); remark: listed apart in the source
[6] = system: EBOV-GP pseudotyped virus; test: microbe, parasite or virus in culture; assay type: cell-based, Ebola virus; settings: Zaire ebolavirus, 72 h, read-out: inhibition of EBOV pseudotyped virus entry
[7] = system: SARS-CoV-S pseudotyped virus; test: microbe, parasite or virus in culture; assay type: cell-based; settings: Severe acute respiratory syndrome coronavirus, 72 h, read-out: inhibition of SARS-CoV pseudotyped virus entry

T1 sequence (P07711 114-333): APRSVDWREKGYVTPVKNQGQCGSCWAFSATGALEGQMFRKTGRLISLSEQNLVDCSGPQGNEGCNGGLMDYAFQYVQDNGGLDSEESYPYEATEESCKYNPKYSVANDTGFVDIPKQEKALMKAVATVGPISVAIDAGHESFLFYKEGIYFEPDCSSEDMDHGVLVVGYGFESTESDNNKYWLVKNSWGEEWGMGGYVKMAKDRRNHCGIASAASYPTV

Compound	Inhibition of cleavage of Hendra peptide by Cathepsin-L (cathepsin L [1]) [%]	percentage inhibition against Hendra peptide (cathepsin L [1]) [%]	Inhibition of cleavage of SARS peptide by Cathepsin-L (cathepsin L [2]) [%]	percentage inhibition against SARS peptide (cathepsin L [2]) [%]	Inhibition of cleavage of Ebola peptide by Cathepsin-L (cathepsin L [3]) [%]	percentage inhibition against Ebola peptide (cathepsin L [3]) [%]	Inhibition of cleavage of Nipah peptide by Cathepsin-L (cathepsin L [4]) [%]	percentage inhibition against Nipah peptide (cathepsin L [4]) [%]	Inhibition of cleavage of NPY peptide by Cathepsin-L (cathepsin L [5]) [%]	percentage inhibition against human Pro-NPY peptide (cathepsin L [5]) [%]	inhibition at 10 µM [6] [%]	inhibition at 10 µM [7] [%]	cytotoxic effect on 293FT cells (293FT cells)	cytotoxicity (293FT cells; human)
Cc1c(C#N)c2ccccc2n1CC(=O)NCc1ccc2c(c1)OCO2 [Compound 6874634]	21.2	22.7	65.6	67.7	4.6	48	46	54.1	12.8	13.4				
O=c1[nH]c2ccc(S(=O)(=O)Nc3ccc(Cl)c(Cl)c3)cc2o1 [Compound 7914021, N-(3,4-dichlorophenyl)-2-oxo-2,3-dihydrobenzo[d]oxazole-6-sulfonamide]	25.4	52.2	71.7	85.2	36	83.8	53.6	82	13.1	21.9	51.5	27.1	toxic	20-100%
Cl.c1ccc(CNC2CCCc3c2[nH]c2ccc(-c4ccccc4)cc32)cc1 (centres unmarked) [Compound 5219666]	54.6	65.2	94.6	96.8	43	75.7	90.6	87.5	30	44.4				
Cc1c(Sc2nc3ccccc3[nH]2)c(=O)[nH]c2cc3c(cc12)OCO3 [Compound 7665576]	37.9		60.7		−3.8		63.7		2.0					
O=C(Nc1ccc(S(=O)(=O)N2CCOCC2)cc1)Nc1ccc(F)c(Cl)c1 [Compound 7798500]	26.3	30.4	69.6	62.2	−6.3	64.8	41.5	49.2	11.2	24.6				
O=C(Nc1ccc2c(c1)OCO2)c1cc(-c2cccnc2)nc2ccc(Cl)cc12 [Compound 7924029]	26.3	45.6	60	71.2	22	55	50.4	77.9	11	18.6				
CNS(=O)(=O)c1ccc(NC(=O)Nc2ccc(F)c(Cl)c2)cc1 [Compound 7790059]	12.4		49.3		1.8		44.1		6.4					
O=C(Nc1ccc(F)c(Cl)c1)Nc1nnc(C(F)(F)F)s1 [Compound 7940158]	26.2	19	55.8	64.6	−12.3	49.1	34	54.7	4	14.9				
Cc1cc(C(=O)Nc2cccnc2)sc1-c1ccccc1 [Compound 7948346]	17.7		72.4		25.2		49.3		10.2					
Nc1ccc2[nH]c3ccccc3c2c1 [Compound 5172420]	8.20		42.29		6.1		55.68		4.1					
N#Cc1ccc(NC(=O)Nc2ccc(Cl)cc2)cc1 [Compound 7910528, 1-(4-chlorophenyl)-3-(4-cyanophenyl)urea]	12.1	12.1	56.5	56.5	33.4	35	57.8	57.8	6.5	6.5	23.3	30.3		
O=C(Nc1cccnc1)c1cc2cc(Br)ccc2oc1=O [Compound 7947992]	31.1		37.7		20		61.4		18.6					
COc1ccc(OC)c(NC(=O)Nc2ccc(C(F)(F)F)cc2)c1 [Compound 7808526]	−4.08		69.2		9.6		40.8		1.2					
O=C(Nc1nc(-c2ccccc2)cs1)c1cc(-n2cnnc2)ccc1Cl [Compound 7931205]	34.8	38.6	36.8	38.1	−0.7	20	66.6	74.4	19.5	24.9				
N#CSc1ccc(NC(=O)CSc2nc3ccccc3[nH]2)cc1 [Compound 6572698]	21.6	24.8	66.1	44.8	15	34	40.7	41.1	1	14.7				
Cc1ccc(-c2nc3ccccc3[nH]2)cc1NC(=O)c1ccc2c(c1)OCO2 [Compound 7793889]	−7.77		76.5		−3.4		51.1		6.1					
CN(C)c1ccc(C(O)(c2ccc(N(C)C)cc2)c2ccc(N(C)C)cc2)cc1 [Compound 5152606]	108.40		82.15		31.8		121.65		70.2					
Cc1cnn(CCCNC(=O)c2cc(-c3cccnc3)nc3ccc(Cl)cc23)c1 [Compound 7923236]	32.6	59	60.2	66.2	14	34.8	55.1	80.3	5.2	10.1				

— patent US20150150878A1, “Methods For Inhibiting Viruses By Targeting Cathepsin-L Cleavage Sites In The Viruses' Glycoproteins” (priority 2012, published 2015)
